The values below come from patent US9970848B2, “Method for evaluating state of horny layer and method for evaluating horny layer improvement effect of cosmetic preparation” (Shiseido Company, Ltd., priority 2013, dated 2018).

This experiment relates to stratum corneum sheets obtained from the forearm flexor region. Nature of the experiment: Screening of candidate cosmetics for ameliorating effect on the stratum corneum (fluorescein staining after wetting and drying). Conditions: 3% aqueous solution, 1 h immersion, dried 2 hours at 0% humidity, room temperature; 0.2 w/v % uranin staining; 12 visual fields averaged.

Method: Stratum corneum sheets obtained from the forearm flexor region using stratum corneum release tape were affixed to glass slides, and each affixed stratum corneum sheet was immersed for one hour in water (two sheets) as a control and in a 3% erythritol aqueous solution (ER) and a 3% AQUAINPOOL 1407 aqueous solution (AQ), as candidate cosmetics. Next, one of the water-wetted stratum corneum sheets was dried at 0% humidity, room temperature, while the other was dried for 2 hours at 90% humidity, room temperature. The stratum corneum sheets wetted with ER and AQ were dried for 2 hours at 0% humidity, room temperature. […] The taken image was corrected for distortion and digitized using analysis software, and the fluorescent brightness was calculated.

Regarding `OC[C@@H](O)[C@@H](O)CO` [ER, erythritol], the “fluorescent brightness compared with the water-wetted stratum corneum sheet (dried at 0% humidity)” value is given as “about the same”.
